The values that follow come from patent US8759357B2, “Inhibitors of fatty acid binding protein (FABP)” (Merck Sharp & Dohme Corp., priority 2009, dated 2014).

A value given as a limit tells only on which side of the number the result lay.

For one experiment, the target named is FABP4 (Homo sapiens, UniProt P15090). The experiment in a line: TdF (Temperature Dependence Fluorescence) thermal shift assay for FABP4. In kind it is binding. The note with it: 3 μM protein; 15, 50 or 100 μM compound; Kd from ΔTm. An excerpt:
TdF (Temperature Dependence Fluorescence) Assay for FABP3 and FABP4
The SAR (Structure Activity Relationship) for FABP3 and FABP4 ligands covered by this invention was interrogated using the TdF (Temperature Dependence Fluorescence) assay or best known as thermal shift assay (M. W. Pantoliana et al, J. Biomol. Screen 6 (2001) 429-440). The TdF assay was mainly conducted in the 96-well based CHROMO-4 real time fluorescence plate reader (BioRad). The Sypro Orange (Sigma-Aldrich), environmentally sensitive fluorescence dye, was used to monitor the protein folding-unfolding transition. Protein-ligand binding was gauged by the change (or shift) in the unfolding transition temperature (ΔTm) acquired at protein alone with respect to protein in the presence of ligand of interest.
The compound of interest was first prepared in DMSO stock (typical concentration: 10 mM). Sample of 20 μL was then added into the 96-well PCR plate, where it consisted of 3 μM protein (FABP4 or FABP3) and 15, 50 or 100 μM compound (depending on compound's solubility) in buffer (25 mM HEPES, 150 mM NaCl, pH=7.5 and 1 mM DTT) incorporated with Sypro Orange dye (5× final concentration). Final percentage of DMSO resided in the sample was 2%. The sample plate was heated from 30° C. to 90° C. with thermal ramping rate of 1° C./min. The fluorescence signals were acquired with excitation and emission wavelengths centered at 490 and 560 nm respectively. The instrument thermal stability was ±0.2° C. The melting Temperatures™ for FABP4 and FABP3 proteins under aforementioned conditions occurred at 61.0±0.2° C. and 64.8±0.2° C. respectively.
Theoretical Basis for TdF-Based Ligand Binding Affinity Constant
The derivation of TdF-based ligand binding affinity constant (Kd) followed closely those previously formulated by Brandts and Lin, Biochemistry 29 (1990) 6927-6940. In brief, the binding constant of the ligand at the Tm is expressed as below:
[formula] where T0 is the midpoint of unfolding for unliganded protein and Tm is the midpoint of unfolding in presence of ligand. [LTm] is free ligand at Tm. The ΔHu and ΔCpu are the enthalpy of unfolding and heat capacity change of unfolding for the protein respectively. The ΔCPu is proportional to the size of protein and is an approximate quantity in the above equation (empirically, ΔCpu=(MW of protein/115)*14 cal/mol*K). Following algorithm derived by Mayhood et al, (Analytical Biochemistry 345 (2005) 187-197), the T0 and ΔHu can be determined separately from nonlinear regression fitting the temperature dependent protein alone curve to the following equation: […]
Where F(T) is the observed fluorescence intensity at any temperature T, Yn and Yu are the predicted fluorescence intensities for fully folded and unfolded protein, respectively; mn and mu are slope correction for changes in Yn and Yu with respect to changes in temperature (analogously replace T0 with Tm in the above equation for liganded protein to yield Tm). The nonlinear regression fitting in general readily reaches convergence by properly constraining the initial values for the fitting parameters (e.g. the initial “guess” for the ΔHu was constrained to 120 kcal/mol; initial Yn and mn were set to 1 and zero to best represent the melting curve along the low temperature region; negative slope of −0.5 was initially chosen for mu; initial Tm was also constrained to 50° C.).
Finally, the ligand binding affinity constant at any temperature T 25° C.) can be thermodynamically connected to the preceding KL™ via
[formula] (see Brandts et al and Mayhood et al, shown above) where ΔHL (T) is the van't Hoff enthalpy of ligand binding at temperature T and ΔCpL is the heat capacity upon ligand binding. For simplicity, the ΔCpL and ΔHL (T) were set to zero and −7 kcal/mol respectively. […]

Another experiment concerns the target FABP5 (Homo sapiens, UniProt Q01469). The experiment in a line: TdCD (Temperature-Dependent Circular Dichroism) assay for FABP5. In kind it is binding. The note with it: compounds at 50 μM and 25 μM; Kd calculated at T=20° C.; 50% uncertainty. An excerpt:
[formula] (see Brandts et al and Mayhood et al, shown above) where ΔHL (T) is the van't Hoff enthalpy of ligand binding at temperature T and ΔCpL is the heat capacity upon ligand binding. For simplicity, the ΔCpL and ΔHL (T) were set to zero and −7 kcal/mol respectively. (The ΔCpL accounts for minimal portion of total protein-ligand binding energetics and is therefore set to zero (For example, see Hossein Naghibi et al, Proc. Natl. Acad. Sci. 92, 5597-5599 (1995), where ΔCpL was estimated to ˜2% of ΔHL at 25° C. obtained from calorimetric study of binding Rnase A and 2′-CMP)). TdCD (Temperature-Dependent Circular Dichroism) Assay for FABP3/4/5
JASCO 810 spectropolarimeter was used to measure Circular Dichroism (CD) spectra and temperature-dependent protein unfolding profiles. The instrument is equipped with a 6-cell piezoelectric temperature controller. Ellipticity was monitored at 226 nm as a function of temperature with a 1 mm path length cell. The scan rate was 1° C./min with a 4 s response time and 30 s equilibration between measurements.
Stock protein FABP5 (3.5 mgs/mL), FABP4 (1.8 mgs/mL) and FABP3 (3 mgs/mL) were diluted to 10-15 μM with 25 mM HEPES pH 7.5, 150 mM NaCl, 1 mM DTT. 10 mM stocks of individual compounds were made in 100% DMSO. The compounds were tested at 50 μM and 25 μM concentrations. DMSO was added to protein-alone (apo) samples to 1% to compensate for DMSO amounts in protein+ligand samples. Data were analyzed using Jasco software and the midpoints of the protein unfolding Transitions™, and the ligand binding constants (KL) were calculated as previously described (See, for example, Mayhood et al, Analytical Biochemistry 345 (2005) 187-197; Smith et al, Biochemistry 46 (2007) 1358-1367; Brandts et al, Biochemistry 29 (1990) 6927-6940; and Matulis et al, Biochemistry 44 (2005) 5258-5266).
Briefly, the To (midpoint of unfolding for the unliganded protein) was calculated from best fit of the unfolding data to the equation below:
[formula] Where, Yobs is the observed ellipticity value at any temperature T, Yn and Yu are the predicted ellipticity values for fully folded and unfolded species, respectively, mn and mu are slope correction for changes in Yn and Yu with respect to changes in temperature. To is the midpoint temperature at which the unliganded protein unfolds and ΔHu and ΔCpu are the heat of unfolding and heat capacity of unfolding, respectively for the unliganded species.
In presence of ligand, the midpoint Temperature™ defines where the equilibrium concentrations of unfolded and folded species are equal. Incorporation of the unliganded free energy of binding and subsequent thermodynamic substitution yielded the binding constant of the ligand at the Tm value of unfolding:
[formula] where, T0 is the midpoint of unfolding for unliganded protein and Tm is the midpoint of unfolding in presence of ligand. [LTm] is free ligand at Tm.
Based on estimates for enthalpy of binding, ΔHL (estimated to be −7 kcal/mol) and ligand binding heat capacity ΔCpL (set to be zero), the ligand binding association constant (KL) at temperature T=20° C. were calculated as below. Based on reasonable boundary change of the estimated ligand binding ΔHL, a 50% uncertainty was uniformly assigned to the calculated TdCD Kd (1/KL) values at T=20° C.

Sequence of FABP5 (Q01469 whole entry): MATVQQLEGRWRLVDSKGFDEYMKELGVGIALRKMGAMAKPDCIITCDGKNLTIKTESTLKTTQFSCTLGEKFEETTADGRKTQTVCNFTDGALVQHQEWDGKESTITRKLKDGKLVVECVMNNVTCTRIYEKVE
Sequence of FABP4 (P15090 whole entry): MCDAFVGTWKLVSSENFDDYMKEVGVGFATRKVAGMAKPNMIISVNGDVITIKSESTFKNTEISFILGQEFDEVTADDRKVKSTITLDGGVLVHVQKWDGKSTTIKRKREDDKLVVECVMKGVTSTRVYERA

As to `CN(Cc1ccc(C(F)(F)F)cc1)Cc1cc(=O)n2nc(-c3ccccc3)nc2[nH]1` [1-53], the values for the Kd at FABP4 and at FABP5 were 0.2 to 5 µM and 0.5 to 100 µM, respectively.
Turning to `O=c1cc(COC(c2ccccc2)C2CC2)[nH]c2nc(-c3ccccc3)nn12` (stereo not shown) [1-116], the Kd (commonly the equilibrium constant for the complex coming apart) on FABP4 is 0.2 to 5 µM; on FABP5, 0.5 to 100 µM.
Consider `CC(OCc1cc(=O)n2nc(-c3ccccc3)nc2[nH]1)c1ccccc1Cl` (stereo not shown) [1-117], for which the figures for the equilibrium dissociation constant (Kd) on FABP4 and at FABP5 were 0.001 to 0.2 µM and 0.5 to 100 µM, respectively.
The corresponding values for `O=c1cc(COCC2(c3cccc(F)c3)CC2)[nH]c2nc(-c3ccccc3)nn12` [1-119] are 0.001 to 0.2 µM and 0.5 to 100 µM.
For `CC(C)(Cc1ccccc1)OCc1cc(=O)n2nc(-c3ccccc3)nc2[nH]1` [1-120], the figures for the Kd on FABP4 and at FABP5 were 0.001 to 0.2 µM and 0.5 to 100 µM, respectively.
The corresponding values for `CCC(OCc1cc(=O)n2nc(-c3ccccc3)nc2[nH]1)C1CCCCC1` (stereo not shown) [1-121] are 0.001 to 0.2 µM and 0.5 to 100 µM.
The corresponding values for `CCC[C@H](OCc1cc(=O)n2nc(-c3ccccc3)nc2[nH]1)c1ccccc1` [1-122] are greater than 5 µM and 0.5 to 100 µM.
For the compound `CC[C@H](OCc1cc(=O)n2nc(-c3ccccc3)nc2[nH]1)c1ccccc1` [1-123], the dissociation constant Kd at FABP4 is greater than 5 µM; on FABP5, 0.5 to 100 µM.
The corresponding values for `CC(OCc1cc(=O)n2nc(-c3ccccc3)nc2[nH]1)C1CCCCC1` (stereo not shown) [1-124] are 0.001 to 0.2 µM and 0.5 to 100 µM.
In the case of `O=c1cc(COCC2CCCCC2)[nH]c2nc(-c3ccccc3)nn12` [1-125], the figures for the Kd at FABP4 and at FABP5 were 0.001 to 0.2 µM and 0.5 to 100 µM, respectively.
The corresponding values for `O=c1cc(COC(CC2CC2)c2ccccc2)[nH]c2nc(-c3ccccc3)nn12` (stereo not shown) [1-126] are 0.2 to 5 µM and 0.5 to 100 µM.
On to `O=c1cc(COCc2cccnc2F)[nH]c2nc(-c3ccccc3)nn12` [1-127], for which the Kd on FABP4 was 0.2 to 5 µM; on FABP5, 0.5 to 100 µM.
For the compound `O=c1cc(COCc2cccnc2Cl)[nH]c2nc(-c3ccccc3)nn12` [1-128], the Kd at FABP4 is 0.2 to 5 µM; at FABP5 it was 0.5 to 100 µM.
On to `O=c1cc(COCC2(c3cccc(C(F)(F)F)c3)CC2)[nH]c2nc(-c3ccccc3)nn12` [1-129], for which the Kd on FABP4 is 0.001 to 0.2 µM; on FABP5, 0.5 to 100 µM.
As to `C=CCC(OCc1cc(=O)n2nc(-c3ccccc3)nc2[nH]1)c1ccccc1Cl` (stereo not shown) [1-130], the dissociation constant Kd is 0.001 to 0.2 µM at FABP4 and 0.5 to 100 µM at FABP5.
The corresponding values for `CC(OCc1cc(=O)n2nc(-c3ccccc3)nc2[nH]1)c1ccccc1F` (stereo not shown) [1-132] are 0.2 to 5 µM and 0.5 to 100 µM.
The corresponding values for `O=C(O)c1cccc(COCc2cc(=O)n3nc(-c4ccccc4)nc3[nH]2)c1` [1-133] are 0.2 to 5 µM and 0.5 to 100 µM.
The corresponding values for `O=c1cc(CNC2(c3cccc(C(F)(F)F)c3)CC2)[nH]c2nc(-c3ccccc3)nn12` [1-137] are 0.2 to 5 µM and 0.5 to 100 µM.
With `O=c1cc(CNCC2(c3cccc(C(F)(F)F)c3)CC2)[nH]c2nc(-c3ccccc3)nn12` [1-138], the Kd on FABP4 was 0.2 to 5 µM; on FABP5, 0.5 to 100 µM.
Regarding `O=c1cc(COCc2ccccc2C(F)(F)F)[nH]c2nc(-c3ccccc3)nn12` [1-140], the Kd on FABP4 was greater than 5 µM; at FABP5, 0.5 to 100 µM.
Regarding `O=c1cc(COCc2ccccc2)[nH]c2nc(-c3ccccc3)nn12` [1-144], the Kd was 0.2 to 5 µM on FABP4 and 0.5 to 100 µM at FABP5.
The corresponding values for `O=c1cc(COCc2cccc(Cl)c2Cl)[nH]c2nc(-c3ccccc3)nn12` [1-145] are 0.2 to 5 µM and 0.5 to 100 µM.
Take `CCC(OCc1cc(=O)n2nc(-c3ccccc3)nc2[nH]1)c1ccccc1Cl` (stereo not shown) [1-153]: the results for the Kd at FABP4 and at FABP5 were 0.001 to 0.2 µM and 0.5 to 100 µM, respectively.
The matching figures for `O=c1cc(COCc2ccccc2Cl)[nH]c2nc(-c3ccccc3)nn12` [1-154]: 0.001 to 0.2 µM and 0.5 to 100 µM.
Consider `Cc1c(Cl)cccc1OC(C)(C)COCc1cc(=O)n2nc(-c3ccccc3)nc2[nH]1` [27-3], for which the Kd at FABP4 was 0.001 to 0.2 µM; on FABP5 it was 0.5 to 100 µM.
The corresponding values for `Cc1ccccc1OC(C)(C)COCc1cc(=O)n2nc(-c3ccccc3)nc2[nH]1` [27-4] are 0.001 to 0.2 µM and 0.5 to 100 µM.
The corresponding values for `O=c1cc(COCC(O)c2ccccc2Cl)[nH]c2nc(-c3ccccc3)nn12` (stereo not shown) [34-1] are greater than 5 µM and 0.5 to 100 µM.
For the compound `O=c1cc(COC(CO)c2ccccc2Cl)[nH]c2nc(-c3ccccc3)nn12` (stereo not shown) [34-2], the figures for the Kd on FABP4 and on FABP5 were greater than 5 µM and 0.5 to 100 µM, respectively.
Take `CC(Cc1cc(=O)n2nc(-c3ccccc3)nc2[nH]1)(Oc1cccc(Cl)c1)C(=O)O` (stereo not shown) [35-4]: the dissociation constant (Kd) is greater than 5 µM on FABP4 and 0.5 to 100 µM on FABP5.
The corresponding values for `CC(Cc1cc(=O)n2nc(-c3ccccc3)nc2[nH]1)(Oc1cccc(Cl)c1)C(=O)NCC1(c2ccccc2Cl)CC1` (stereo not shown) [35-5] are 0.001 to 0.2 µM and 0.5 to 100 µM.
Consider `COC(C)(Cc1cc(=O)n2nc(-c3ccccc3)nc2[nH]1)C(=O)NCC1(c2ccc(Cl)cc2)CCC1` (stereo not shown) [36-2], for which the Kd was 0.001 to 0.2 µM on FABP4 and 0.5 to 100 µM on FABP5.
The matching figures for `[2H]C([2H])([2H])OC(C(=O)NCC1(c2ccc(Cl)cc2)CCC1)(C([2H])([2H])[2H])C([2H])([2H])c1cc(=O)n2nc(-c3ccccc3)nc2[nH]1` (stereo not shown) [37-2]: 0.001 to 0.2 µM and 0.5 to 100 µM.
